From paper PMC9127750, “Structure-based design of CDC42 effector interaction inhibitors for the treatment of cancer” (Cell reports, 2022)
Where two headings read alike, the source gives them in different places.

What was measured:
Test in all cases: cells
[1] = test system: EFO-27; conditions: Homo sapiens, EFO-27, read-out: IC50 ARN22089
In short: (§1)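 Overnight compound treatment at 37°C preceded CellTiterGlo quantification of viable cells, each line kept in its own medium.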

[2] = test system: A549; conditions: Homo sapiens, A549, read-out: IC50 ARN22089
In short: as §1

[3] = test system: Ishikawa; conditions: Homo sapiens, read-out: IC50 ARN22089
In short: as §1

[4] = test system: KARPAS 299; conditions: Homo sapiens, KARPAS-299, read-out: IC50 ARN22089
In short: as §1

[5] = test system: SK-N-FI; conditions: Homo sapiens, read-out: IC50 ARN22089
In short: as §1

[6] = test system: WM3248; conditions: Homo sapiens, WM3248, read-out: IC50 WM3248
In short: as §1

[7] = test system: SK-ES-1; conditions: Homo sapiens, SK-ES1, read-out: IC50 ARN22089
In short: as §1

[8] = test system: BEN; conditions: read-out: IC50 ARN22089
In short: as §1

[9] = test system: Hep3B2.1-7; conditions: read-out: IC50 ARN22089
In short: as §1

[10] = test system: A172; conditions: Homo sapiens, A 172, read-out: IC50 ARN22089
In short: as §1

[11] = test system: HCC38; conditions: Homo sapiens, HCC38, read-out: IC50 ARN22089
In short: as §1

[12] = test system: EFM-192A; conditions: read-out: IC50 ARN22089
In short: as §1

[13] = test system: AsPC-1; conditions: Homo sapiens, ASPC1, read-out: IC50 ARN22089
In short: as §1

[14] = test system: SCLC-21H; conditions: Homo sapiens, read-out: IC50 ARN22089
In short: as §1

[15] = test system: DV90; conditions: Homo sapiens, DV-90, read-out: IC50 ARN22089
In short: as §1

[16] = test system: HCC827; conditions: Homo sapiens, HCC827, read-out: IC50 ARN22089
In short: as §1

[17] = test system: OV56; conditions: OV56, read-out: IC50 ARN22089
In short: as §1

[18] = test system: NCI-H1838; conditions: Homo sapiens, NCI-H1838, read-out: IC50 ARN22089
In short: as §1

[19] = test system: J82; conditions: Homo sapiens, J82, read-out: IC50 ARN22089
In short: as §1

[20] = test system: Caki-1; conditions: Homo sapiens, CAKI-1, read-out: IC50 ARN22089
In short: as §1

[21] = test system: SK-LU-1; conditions: Homo sapiens, SK-LU-1, read-out: IC50 ARN22089
In short: as §1

[22] = test system: HT-1080; conditions: Homo sapiens, HT-1080, read-out: IC50 ARN22089
In short: as §1

[23] = test system: NCI-H1573; conditions: Homo sapiens, NCI-H1573, read-out: IC50 ARN22089
In short: as §1

[24] = test system: HCT116; conditions: Homo sapiens, HCT-116, read-out: IC50 ARN22089
In short: as §1

[25] = test system: MV4-11; conditions: Homo sapiens, MV4-11, read-out: IC50 ARN22089
In short: as §1

[26] = test system: LOVO; conditions: Homo sapiens, read-out: IC50 ARN22089
In short: as §1

[27] = test system: SW480; conditions: Homo sapiens
In short: as §1

[28] = test system: H460; conditions: Homo sapiens, NCI-H460, read-out: IC50 ARN22089
In short: as §1

[29] = test system: MKN-45; conditions: Homo sapiens, MKN-45, read-out: IC50 ARN22089
In short: as §1

[30] = test system: RL95-2; conditions: Homo sapiens, RL95-2, read-out: IC50 ARN22089
In short: as §1

[31] = test system: Saos-2 EC; conditions: Homo sapiens, SAOS-2, read-out: IC50 ARN22089
In short: as §1

[32] = test system: NCI-H2009; conditions: Homo sapiens, NCI-H2009, read-out: IC50 ARN22089
In short: as §1

[33] = test system: A375; conditions: Homo sapiens
In short: as §1

[34] = test system: NCI-H1581; conditions: Homo sapiens, NCI-H1581, read-out: IC50 ARN22089
In short: as §1

[35] = test system: Colo 205; conditions: Homo sapiens, COLO 205, read-out: IC50 ARN22089
In short: as §1

[36] = test system: P31/FUJ; conditions: Homo sapiens, read-out: IC50 ARN22089
In short: as §1

[37] = test system: OVK18; conditions: OVK18, read-out: IC50 ARN22089
In short: as §1

[38] = test system: SNU-1; conditions: Homo sapiens, SNU1, read-out: IC50 ARN22089
In short: as §1

[39] = test system: A498; conditions: Homo sapiens, A498, read-out: IC50 ARN22089
In short: as §1

[40] = test system: MCAS; conditions: read-out: IC50 ARN22089
In short: as §1

[41] = test system: SJSA-1; conditions: Homo sapiens, SJSA-1, read-out: IC50 ARN22089
In short: as §1

[42] = test system: MOLT-4; conditions: Homo sapiens, MOLT-4, read-out: IC50 ARN22089
In short: as §1

CN(C)c1cccc(Nc2cc(-c3ccccc3)nc(C3CCNCC3)n2)c1 [ARN22089, N1,N1-dimethyl-N3-(6-phenyl-2-(piperidin-4-yl)pyrimidin-4-yl)benzene-1,3-diamine]
IC50 [1]: 12 µM | IC50 [2]: 11 µM | IC50 [3]: 8.5 µM | IC50 [4]: 11 µM | IC50 [5]: 11 µM | IC50 [6]: 4.52 µM | IC50 [7]: 12 µM | IC50 [8]: 12 µM | IC50 [9]: 3.6 µM | IC50 [10]: 5.8 µM | IC50 [11]: 10 µM | IC50 [12]: 14 µM | IC50 [13]: 9.9 µM | IC50 [14]: 5.4 µM | IC50 [15]: 29 µM | IC50 [16]: 11 µM | IC50 [17]: 13 µM | IC50 [18]: 17 µM | IC50 [19]: 5.9 µM | IC50 [20]: 11 µM | IC50 [21]: 7.8 µM | IC50 [22]: 11 µM | IC50 [23]: 24 µM | IC50 [24]: 5.2 µM | IC50 [25]: 4.4 µM | IC50 [26]: 7.8 µM | IC50 ([27]; SW480, read-out: IC50 ARN22089): 3.4 µM | IC50 ([27]; SW480, read-out: IC50 SW480): 8.61 µM | IC50 [28]: 8.5 µM | IC50 [29]: 4.1 µM | IC50 [30]: 5.7 µM | IC50 [31]: 9 µM | IC50 [32]: 15 µM | IC50 ([33]; A-375, read-out: IC50 A375): 4.92 µM | IC50 ([33]; A-375, read-out: IC50 ARN22089): 4.5 µM | IC50 [34]: 24 µM | IC50 [35]: 7 µM | IC50 [36]: 14 µM | IC50 [37]: 7.5 µM | IC50 [38]: 7.8 µM | IC50 [39]: 10 µM | IC50 [40]: 4.6 µM | IC50 [41]: 9.5 µM | IC50 [42]: 11 µM
